Reference: article PMC5681660, “Reduced hepatitis B and D viral entry using clinically applied drugs as novel inhibitors of the bile acid transporter NTCP” (Scientific Reports, 2017)
Counter-ions that a name gives are not always drawn.

Molecular target: T1, human NTCP (Homo sapiens, UniProt Q14973)
T1 sequence (Q14973 1-349): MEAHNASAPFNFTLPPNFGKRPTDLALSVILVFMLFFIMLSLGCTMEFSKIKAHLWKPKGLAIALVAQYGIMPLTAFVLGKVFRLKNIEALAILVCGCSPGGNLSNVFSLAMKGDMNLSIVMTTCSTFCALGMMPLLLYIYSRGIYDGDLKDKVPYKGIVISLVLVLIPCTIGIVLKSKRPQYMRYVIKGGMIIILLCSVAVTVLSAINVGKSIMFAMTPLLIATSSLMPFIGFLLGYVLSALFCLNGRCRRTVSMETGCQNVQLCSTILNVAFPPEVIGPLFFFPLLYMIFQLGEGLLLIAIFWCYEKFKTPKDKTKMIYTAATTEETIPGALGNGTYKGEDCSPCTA
Assay: Screening taurocholate uptake assay (96-well, [14C]taurocholate, 10 µM drug)
Conditions: for B-score functional assay: screening taurocholate uptake, 10 µM drug

[1] = combined ranking of functional and binding screening assays
[2] = ranking over the functional and the binding screening assay

CC[N+](CC)(CC)CCOc1cccc(OCC[N+](CC)(CC)CC)c1OCC[N+](CC)(CC)CC [Gallamine triethiodide]
Ranking score [1]: 565.721
B-score functional assay: 3.679

COc1c(N2CCNC(C)C2)c(F)cc2c(=O)c(C(=O)O)cn(C3CC3)c12 (stereo not drawn) [Gatifloxacin]
Ranking score [1]: 627.155
B-score functional assay: -0.592

COc1cc2ncnc(Nc3ccc(F)c(Cl)c3)c2cc1OCCCN1CCOCC1 [Gefitinib]
Ranking score [1]: 629.087
B-score functional assay: 0.784

Cc1ccc(S(=O)(=O)NC(=O)NN2CC3CCCC3C2)cc1 (stereo not drawn) [Gliclazide]
Ranking score [2]: 246.057
B-score functional assay: -0.222

COC1=CC(=O)C[C@@H](C)[C@]12Oc1c(Cl)c(OC)cc(OC)c1C2=O [Griseofulvin]
Ranking score [1]: 477.468
B-score functional assay: -0.69

COc1ccccc1OCC(O)CO (stereo not drawn) [Guaifenesin]
Ranking score [1]: 466.326
B-score functional assay: 0.275

N=C(N)N/N=C/c1c(Cl)cccc1Cl [Guanabenz acetate]
Ranking score [1]: 467.541
B-score functional assay: -1.531

N=C(N)NC(=O)Cc1c(Cl)cccc1Cl [Guanfacine hydrochloride]
Ranking score [1]: 635.421
B-score functional assay: 0.703

CC1(C)O[C@@H]2C[C@H]3[C@@H]4CCC5=CC(=O)CC[C@]5(C)[C@@]4(F)[C@@H](O)C[C@]3(C)[C@]2(C(=O)CCl)O1 [Halcinonide]
Ranking score [1]: 634.219
B-score functional assay: 0.608

Clc1cc(Cl)c(OCC#CI)cc1Cl [Haloprogin]
Ranking score [1]: 1271.5
B-score functional assay (B-score): 4.15

C[N+]1(C)CCOC(O)(c2ccc(-c3ccc(C4(O)C[N+](C)(C)CCO4)cc3)cc2)C1.[Br-].[Br-] (stereo not drawn) [Hemicholinium bromide]
Ranking score [2]: 262.621
B-score functional assay: -3

CC(N)CCCC(C)(C)O (stereo not drawn) [Heptaminol hydrochloride]
Ranking score [1]: 1189.85
B-score functional assay (B-score): 2.111

COc1ccc([C@@H]2CC(=O)c3c(O)cc(O[C@@H]4O[C@H](CO[C@@H]5O[C@@H](C)[C@H](O)[C@@H](O)[C@H]5O)[C@@H](O)[C@H](O)[C@H]4O)cc3O2)cc1O [Hesperidin]
Ranking score [1]: 580.078
B-score functional assay: 0.91

CC[C@H](c1ccc(O)cc1)[C@@H](CC)c1ccc(O)cc1 [Hexestrol]
Ranking score [2]: 43.1277
B-score functional assay: -5.763

CCCCC(CC)CN1CN(CC(CC)CCCC)CC(C)(N)C1 (stereo not drawn) [Hexetidine]
Ranking score [1]: 491.543
B-score functional assay: 3.961

NCCc1c[nH]cn1 [Histamine dihydrochloride]
Ranking score [1]: 536.125
B-score functional assay: 0.779

COc1ccc(CCN)cc1OC [Homoveratrylamine]
Ranking score [1]: 500.783
B-score functional assay: 0.521

CCN(CC)CCNc1ccc(CO)c2sc3ccccc3c(=O)c12 [Hycanthone]
Ranking score [1]: 491.684
B-score functional assay: -0.266

NNc1nncc2ccccc12 [Hydralazine hydrochloride]
Ranking score [1]: 587.239
B-score functional assay: -0.84

NS(=O)(=O)c1cc2c(cc1Cl)NCNS2(=O)=O [Hydrochlorothiazide]
Ranking score [1]: 515.124
B-score functional assay: 0.079

C[C@]12CCC(=O)C=C1CC[C@@H]1[C@@H]2[C@@H](O)C[C@@]2(C)[C@H]1CC[C@]2(O)C(=O)CO [Hydrocortisone base]
Ranking score [1]: 557.864
B-score functional assay: 0.004

CCCCCN(C)CCC(O)(P(=O)([O-])O)P(=O)(O)O.[Na+] [Ibandronate sodium]
Ranking score [2]: 183.606
B-score functional assay: 0.015

c1ccc2c(c1)OCC(C1=NCCN1)O2 (stereo not drawn) [Idazoxan hydrochloride]
Ranking score [2]: 198.728
B-score functional assay: -2.926

COC1=C(OC)C(=O)C(CCCCCCCCCCO)=C(C)C1=O [Idebenone]
Ranking score [1]: 488.87
B-score functional assay: 0.176

O=c1[nH]c(=O)n([C@H]2C[C@H](O)[C@@H](CO)O2)cc1I [Idoxuridine]
Ranking score [2]: 91.1921
B-score functional assay: -4.488

C[C@@H](O)[C@H]1C(=O)N2C(C(=O)O)=C(SCCN=CN)C[C@H]12 [Imipenem]
Ranking score [1]: 1154.72
B-score functional assay (B-score): 1.996

CC1Cc2ccccc2N1NC(=O)c1ccc(Cl)c(S(N)(=O)=O)c1 (stereo not drawn) [Indapamide]
Ranking score [1]: 559.557
B-score functional assay: -0.108

COc1ccc2c(c1)c(CC(=O)O)c(C)n2C(=O)c1ccc(Cl)cc1 [Indomethacin]
Ranking score [2]: 264.174
B-score functional assay: -1.11

NC(N)=NCc1cccc(I)c1.NC(N)=NCc1cccc(I)c1.O=S(=O)(O)O [Iobenguane sulfate]
Ranking score [1]: 1171.02
B-score functional assay (B-score): 1.016

CC(=O)N(CC(C)C(=O)O)c1c(I)cc(I)c(N)c1I (stereo not drawn) [Iocetamic acid]
Ranking score [2]: 232.635
B-score functional assay: -0.783

CC(=O)N(CC(O)CN(C(C)=O)c1c(I)c(C(=O)NCC(O)CO)c(I)c(C(=O)NCC(O)CO)c1I)c1c(I)c(C(=O)NCC(O)CO)c(I)c(C(=O)NCC(O)CO)c1I (stereo not drawn) [Iodixanol]
Ranking score [2]: 270.78
B-score functional assay: 2.051

C[C@H](O)C(=O)Nc1c(I)c(C(=O)NC(CO)CO)c(I)c(C(=O)NC(CO)CO)c1I [Iopamidol]
Ranking score [2]: 105.925
B-score functional assay: -2.672

COCC(=O)Nc1c(I)c(C(=O)NCC(O)CO)c(I)c(C(=O)N(C)CC(O)CO)c1I (stereo not drawn) [Iopromide]
Ranking score [2]: 153.642
B-score functional assay: -5.088

CC(C)Oc1ccc2c(=O)c(-c3ccccc3)coc2c1 [Ipriflavone]
Ranking score [1]: 535.848
B-score functional assay: 2.878

CC(C)NNC(=O)c1ccncc1.O=P(O)(O)O [Iproniazide phosphate]
Ranking score [1]: 542.692
B-score functional assay: 0.714

Cc1cc(C(=O)NNCc2ccccc2)no1 [Isocarboxazid]
Ranking score [1]: 552.74
B-score functional assay: 0.681

CCC(NC(C)C)C(O)c1ccc(O)c(O)c1.CS(=O)(=O)O (stereo not drawn) [Isoetharine mesylate salt]
Ranking score [1]: 639.265
B-score functional assay: -0.384

CC(=O)OCC(=O)[C@@]1(O)CC[C@H]2[C@@H]3CCC4=CC(=O)C=C[C@]4(C)[C@@]3(F)[C@@H](O)C[C@@]21C [Isoflupredone acetate]
Ranking score [1]: 486.111
B-score functional assay: 1.125

Cc1c(NC(C)C)c(=O)n(-c2ccccc2)n1C.Cl [Isopyrin hydrochloride]
Ranking score [2]: 209.153
B-score functional assay: -3.076

O=[N+]([O-])O[C@@H]1CO[C@H]2[C@@H]1OC[C@@H]2O [Isosorbide mononitrate]
Ranking score [2]: 252.589
B-score functional assay: -0.263

CC1=C(/C=C/C(C)=C/C=C/C(C)=C\C(=O)O)C(C)(C)CCC1 [Isotretinoin]
Ranking score [2]: 204.751
B-score functional assay: -0.503

COC(=O)C1=C(C)NC(C)=C(C(=O)OC(C)C)C1c1cccc2nonc12 (stereo not drawn) [Isradipine]
Ranking score [2]: 185.591
B-score functional assay: -0.707

COc1ccc(C(=O)NCc2ccc(OCCN(C)C)cc2)cc1OC [Itopride]
Ranking score [1]: 560.029
B-score functional assay: -0.688

CC[C@H](C)[C@H]1O[C@]2(CC[C@@H]1C)C[C@@H]1C[C@@H](C/C=C(\C)[C@@H](O[C@H]3C[C@H](OC)[C@@H](O[C@H]4C[C@H](OC)[C@@H](O)[C@H](C)O4)[C@H](C)O3)[C@@H](C)/C=C/C=C3\CO[C@@H]4[C@H](O)C(C)=C[C@@H](C(=O)O1)[C@]34O)O2 [Ivermectin]
Ranking score [2]: 56.4978
B-score functional assay: -2.693

Cl.OC1CCCCC1N1CCC(c2ccccc2)CC1 (stereo not drawn) [L(-)-vesamicol hydrochloride]
Ranking score [2]: 206.223
B-score functional assay: -0.315

CC(CCc1ccccc1)NCC(O)c1ccc(O)c(C(N)=O)c1 (stereo not drawn) [Labetalol hydrochloride]
Ranking score [1]: 596.712
B-score functional assay: 2.094

CC(=O)O[C@H]1C[C@H](O[C@H]2[C@@H](O)C[C@H](O[C@H]3[C@@H](O)C[C@H](O[C@H]4CC[C@@]5(C)[C@H](CC[C@@H]6[C@@H]5C[C@@H](O)[C@]5(C)[C@@H](C7=CC(=O)OC7)CC[C@]65O)C4)O[C@@H]3C)O[C@@H]2C)O[C@H](C)[C@H]1O[C@@H]1O[C@H](CO)[C@@H](O)[C@H](O)[C@H]1O [Lanatoside C]
Ranking score [1]: 583.598
B-score functional assay: -0.511

N#Cc1ccc(C(c2ccc(C#N)cc2)n2cncn2)cc1 [Letrozole]
Ranking score [1]: 610.1
B-score functional assay: 1.169

N[C@@H](Cc1ccc(O)c(O)c1)C(=O)O [Levodopa]
Ranking score [2]: 265.141
B-score functional assay: 0.049

Cc1cccc(C)c1NC(=O)CN1CCN(CCCC(c2ccc(F)cc2)c2ccc(F)cc2)CC1 [Lidoflazine]
Ranking score [1]: 479.588
B-score functional assay: -0.817

CC(=O)NC[C@H]1CN(c2ccc(N3CCOCC3)c(F)c2)C(=O)O1 [Linezolid]
Ranking score [2]: 172.974
B-score functional assay: -1.549

C[C@H](CCC(=O)O)[C@H]1CC[C@H]2[C@@H]3CC[C@@H]4C[C@H](O)CC[C@]4(C)[C@H]3CC[C@]12C [Lithocholic acid]
Ranking score [2]: 22.4499
B-score functional assay: -6.112

N#Cc1cc(NC(=O)C(=O)O)c(Cl)c(NC(=O)C(=O)O)c1 [Lodoxamide]
Ranking score [1]: 609.015
B-score functional assay: -0.138

CN(CCCN1c2ccccc2CCc2ccccc21)CC(=O)c1ccc(Cl)cc1 [Lofepramine]
Ranking score [1]: 479.183
B-score functional assay: 0.81
